The subject of experiment [1] is IL-12p70 (the complex of IL-12p35 and p40). Kind of experiment: IL-12p70 production inhibition in macrophages derived from mouse abdomen (IFN-γ/SAC stimulation, ELISA). In kind it is cell-based. The note with it: Macrophage; mouse (Balb/c) abdominal macrophages, 100 ng/mL mouse IFN-γ + 0.05% SAC, overnight; TFA salts tested where prepared as such; read-out: IL-12p70-Inhibitory Activity IC50. The protocol:
(§1) One milliliter each of a 3% (w/v) thioglycolate solution was intraperitoneally administered to mice (female Balb/c mice), the abdominal cells of each mouse were recovered after 5 or 6 days from the administration of the thioglycolate solution and the adhesive cells were collected and used in the exaluation procedures. To a culture medium containing such adhesive cells, there were added 100 ng/mL of mouse interferon-γ and a 0.05% (v/v) liquid containing killed cells derived from Staphylococcus aureus Cowan I strain (SAC) and a candidate compound and then the mixture was cultivated overnight. After the completion of the cultivation, the survival ratios were determined, there were quantitatively determined the quantities of IL-12p70 (the complex of IL-12p35 and p40) and IL-12p40 or TNF-α according to the ELISA assays while making use of the recovered supernatant of the culture medium and the 50% production-inhibitory concentration (IC50) was calculated for each case (see Table 1 and Tables 1-9 for IL-12p70 and TNF-α and Tables 1 to 10 for IL-12p40).

For the next experiment, the system named is TNF-α. Kind of experiment: TNF-α production inhibition in macrophages derived from mouse abdomen (IFN-γ/SAC stimulation, ELISA). In kind it is cell-based. The settings on record: Macrophage; mouse (Balb/c) abdominal macrophages, 100 ng/mL mouse IFN-γ + 0.05% SAC, overnight; TFA salts tested where prepared as such; read-out: TNF-α-Inhibitory Activity IC50. Here is the method: as §1

As to `Cc1cccc(/C=N/Nc2cc(N3CCOCC3)n3nc(-c4ccccc4)cc3n2)c1` [Compound 1, N-(3-methyl-benzylidene)-N′-(2-phenyl-7-morpholin-4-yl-pyrazolo[1,5-a]pyrimidin-5-yl)-hydrazine], the IC50 is 19 nM in experiment [1] and over 10000 nM in the experiment with TNF-α.
In the same order, the values of `C(=N\Nc1cc(N2CCOCC2)n2nc(-c3ccccc3)cc2n1)/c1c[nH]c2ccccc12` [Compound 2, N-(1H-indol-3-yl-methylidene)-N′-(7-morpholin-4-yl-2-phenyl-pyrazolo[1,5-a]pyrimidin-5-yl)-hydrazine] are 33 nM and over 10000 nM.
In the same order, the values of `Cc1ccc(-c2cc3nc(N/N=C/c4cccc(C)c4)cc(N4CCOCC4)n3n2)cc1` [Compound 3, N-(3-methyl-benzylidene)-N′-{2-(4-methylphenyl)-7-morpholin-4-yl-pyrazolo[1,5-a]pyrimidin-5-yl}-hydrazine] are 35 nM and over 10000 nM.
Take `Cc1ccc(-c2cc3nc(N/N=C/c4c[nH]c5ccccc45)cc(N4CCOCC4)n3n2)cc1` [Compound 4, N-(1H-indol-3-yl-methylidene)-N′-{2-(4-methylphenyl)-7-morpholin-4-yl-pyrazolo[1,5-a]pyrimidin-5-yl}-hydrazine]: the values for the IC50 (in experiment [1]; in the experiment on TNF-α) were 23 nM and over 10000 nM, respectively.
In the case of `Cc1ccc(-c2nn3c(N4CCOCC4)cc(N/N=C/c4cccc(C)c4)nc3c2Br)cc1` [Compound 5, N-{3-bromo-2-(4-methylphenyl)-7-morpholin-4-yl-pyrazolo-[1,5-a]pyrimidin-5-yl}-N′-(3-methyl-benzylidene)-hydrazine], the IC50 is 124 nM in experiment [1] and over 10000 nM with TNF-α.
Turning to `Cc1cccc(/C=N/Nc2cc(N3CCOCC3)n3ncc(-c4ccccc4)c3n2)c1` [Compound 6, N-(3-methyl-benzylidene)-N′-(7-morpholin-4-yl-3-phenyl-pyrazolo[1,5-a]pyrimidin-5-yl)-hydrazine], the IC50 in experiment [1] is 642 nM; in the experiment with TNF-α, over 10000 nM.
In the same order, the values of `C(=N\Nc1cc(N2CCOCC2)n2nc(-c3ccccc3)cc2n1)/c1ccccc1` [Compound 7, N-benzylidene-N′-(7-morpholin-4-yl-2-phenyl-pyrazolo-[1,5-a]pyrimidin-5-yl)-hydrazine] are 113 nM and over 10000 nM.
Regarding `C(=N\Nc1cc(N2CCOCC2)n2nc(-c3ccccc3)cc2n1)/c1cccnc1` [Compound 8, N-(7-morpholin-4-yl-2-phenyl-pyrazolo[1,5-a]pyrimidin-5-yl)-N′-pyridin-3-yl-methylidene-hydrazine], the IC50 in experiment [1] was 407 nM; with TNF-α, over 10000 nM.
Turning to `C(=N\Nc1cc(N2CCOCC2)n2nccc2n1)/c1c[nH]c2ccccc12` [Compound 10, N-(1H-indol-3-yl-methylidene)-N′-(7-morpholin-4-yl-pyrazolo[1,5-a]pyrimidin-5-yl)-hydrazine], the IC50 in experiment [1] is 165 nM; in the experiment on TNF-α, over 10000 nM.
Take `Cc1cccc(/C=N/Nc2cc(N3CCOCC3)n3ncc(Br)c3n2)c1` [Compound 11, N-(3-bromo-7-morpholin-4-yl-pyrazolo[1,5-a]pyrimidin-5-yl)-N′-(3-methyl-benzylidene)-hydrazine]: the results for the IC50 (in experiment [1]; with TNF-α) were 340 nM and over 10000 nM, respectively.
For `Cc1cccc(/C=N/Nc2cc(N3CCOCC3)n3nc(-c4cccc(Cl)c4)cc3n2)c1` [Compound 12, N-{2-(3-chloro-phenyl)-7-morpholin-4-yl-pyrazolo[1,5-a]-pyrimidin-5-yl}-N′-(3-methyl-benzylidene)-hydrazine], the IC50 in experiment [1] was 17 nM; with TNF-α it was over 10000 nM.
For the molecule `Cc1cccc(/C=N/Nc2cc(N3CCOCC3)n3nc(-c4ccc(Cl)cc4)cc3n2)c1` [Compound 13, N-{2-(4-chlorophenyl)-7-morpholin-4-yl-pyrazolo[1,5-a]-pyrimidin-5-yl}-N′-(3-methyl-benzylidene)-hydrazine], the IC50 in experiment [1] was 34 nM; in the experiment on TNF-α it was over 10000 nM.
Turning to `Cc1cccc(/C=N/Nc2cc(N3CCOCC3)n3nc(-c4ccccc4C)cc3n2)c1` [Compound 14, N-(3-methyl-benzylidene)-N′-{2-(2-methyl-phenyl)-7-morpholin-4-yl-pyrazolo[1,5-a]pyrimidin-5-yl}-hydrazine], the IC50 in experiment [1] is 38 nM; in the experiment with TNF-α, over 10000 nM.
In the case of `COc1ccc(-c2cc3nc(N/N=C/c4cccc(C)c4)cc(N4CCOCC4)n3n2)cc1` [Compound 15, N-{2-(4-methoxy-phenyl)-7-morpholin-4-yl-pyrazolo[1,5-a]pyrimidin-5-yl}-N′-(3-methyl-benzylidene)-hydrazine], the IC50 in experiment [1] is 11 nM; with TNF-α it was over 10000 nM.
Consider `Cc1cccc(/C=N/Nc2cc(N3CCOCC3)n3nc(-c4ccc(Br)cc4)cc3n2)c1` [Compound 16, N-{2-(4-bromo-phenyl)-7-morpholin-4-yl-pyrazolo[1,5-a]-pyrimidin-5-yl}-N′-(3-methyl-benzylidene)-hydrazine], for which the 50% inhibitory concentration (IC50) in experiment [1] is 18 nM; in the experiment on TNF-α it was over 10000 nM.
With `Cc1cccc(/C=N/Nc2cc(N3CCOCC3)n3nc(-c4ccc(N5CCOCC5)cc4)cc3n2)c1` [Compound 17, N-(3-methyl-benzylidene)-N′-{7-morpholin-4-yl-2-(4-morpholin-4-yl-phenyl)-pyrazolo[1,5-a]pyrimidin-5-yl}-hydrazine], the IC50 in experiment [1] was 4 nM; with TNF-α it was over 10000 nM.
In the same order, the values of `Cc1cccc(/C=N/Nc2cc(N3CCOCC3)n3nc(-c4cccs4)cc3n2)c1` [Compound 18, N-(3-methyl-benzylidene)-N′-(7-morpholin-4-yl-2-thiophen-2-yl-pyrazolo[1,5-a]pyrimidin-5-yl)-hydrazine] are 11 nM and over 10000 nM.
As for `CCc1cccc(/C=N/Nc2cc(N3CCOCC3)n3nc(-c4cccnc4)cc3n2)c1` [Compound 115], in experiment [1], the IC50 is 55 nM.
Same read-out and setting: under `C(=N\Nc1cc(N2CCOCC2)n2nc(-c3ccncn3)cc2n1)/c1c[nH]c2ccccc12` [Compound 120, N-(1H-indol-3-yl-methylidene)-N-(7-morpholin-4-yl-2-pyrimidin-4-yl-pyrazolo[1,5-a]pyrimidin-5-yl)-hydrazine] stands 40 nM.
In the case of `Cc1cccc(/C=N/Nc2cc(N3CCOCC3)n3nc(-c4cncnc4)cc3n2)c1` [Compound 124, N-(3-methyl-benzylidene)-N′-(7-morpholin-4-yl-2-pyrimidin-5-yl-pyrazolo[1,5-a]pyrimidin-5-yl)-hydrazine], in experiment [1], the IC50 was determined as 20 nM.
`C(=N\Nc1cc(N2CCOCC2)n2nc(-c3ccncc3)cc2n1)/c1ccc2occc2c1` [Compound 125, N-benzofuran-5-yl-methylidene-N′-(7-morpholin-4-yl-2-pyridin-4-yl-pyrazolo[1,5-a]pyrimidin-5-yl)-hydrazine]: the IC50 in experiment [1] was found to be 36 nM.
On the same count and under the same terms, under `Cc1cccc(/C=N/Nc2cc(N3CCOCC3)n3nc(N4CCOCC4)cc3n2)c1` [Compound 127, N-(3-methyl-benzylidene)-N-(2,7-dimorpholin-4-yl-pyrazolo[1,5-a]-pyrimidin-5-yl)-hydrazine] stands 160 nM.
Same read-out and setting: under `Fc1cccc(/C=N/Nc2cc(N3CCOCC3)n3nc(-c4ccncc4)cc3n2)c1` [Compound 130, N-(3-fluoro-benzylidene)-N′-(7-morpholin-4-yl-2-pyridin-4-yl-pyrazolo[1,5-a]pyrimidin-5-yl)-hydrazine] stands 140 nM; under `Cc1cccc(/C=N/Nc2cc(N3CCOCC3)n3nc(C4CCN(C(=O)OCc5ccccc5)CC4)cc3n2)c1` [Compound 131, N-[2-(1-benzyloxy-carbonyl-piperidin-4-yl)-7-morpholin-4-yl-pyrazolo[1,5-a]pyrimidin-5-yl]-N′-(3-methyl-benzylidene)-hydrazine], 100 nM; under `Cc1cccc(/C=N/Nc2cc(N3CCOCC3)n3nc(C4CCNCC4)cc3n2)c1` [Compound 132, N-(3-methyl-benzylidene)-N′-(7-morpholin-4-yl-2-piperidin-4-yl-pyrazolo[1,5-a]pyrimidin-5-yl)-hydrazine], 470 nM.
For the molecule `CC(=O)N1CCC(c2cc3nc(N/N=C/c4cccc(C)c4)cc(N4CCOCC4)n3n2)CC1` [Compound 133, N-[2-(1-acetyl-piperidin-4-yl)-7-morpholin-4-yl-pyrazolo-[1,5-a]pyrimidin-5-yl]-N′-(3-methyl-benzylidene)-hydrazine], the IC50 in experiment [1] worked out at 96 nM.
Regarding `Cc1cccc(/C=N/Nc2cc(N3CCOCC3)n3nc(OCc4ccccc4)cc3n2)c1` [Compound 134, N-(2-benzyloxy-7-morpholin-4-yl-pyrazolo[1,5-a]pyrimidin-5-yl)-N′-(3-methyl-benzylidene)-hydrazine], the IC50 in experiment [1] turned out to be 130 nM.
On the same count and under the same terms, under `Cc1cccc(/C=N/Nc2cc(N3CCOCC3)n3nc(C(=O)N(C)c4ccncc4)cc3n2)c1` [Compound 135, 5-[N-(3-methyl-benzylidene)-hydrazino]-7-morpholin-4-yl-pyrazolo[1,5-a]pyrimidine-2-carboxylic acid methyl-pyridin-4-yl-amide] stands 130 nM.
Consider `OB(O)c1cccc(/C=N/Nc2cc(N3CCOCC3)n3nc(-c4ccccc4)cc3n2)c1` [Compound 139, N-(3-boronyl-benzylidene)-N-(7-morpholin-4-yl-2-phenyl-pyrazolo[1,5-a]pyrimidin-5-yl)-hydrazine], for which the IC50 in experiment [1] came out at 250 nM.

The record behind these values is US8314098B2, “Pyrazolo-pyrimidine compounds” (Ajinomoto Co., Inc., priority 2008, dated 2012).
